Results as given in patent publication US12252484B2, “Pyrazolopyridine compounds for the treatment of autoimmune disease” (Hoffmann-La Roche Inc., priority 2018, dated 2025).
pIC50: −log10 of the molar value.

target: T1, human TLR9 (Homo sapiens, UniProt Q9NR96); test: HEK293-Blue-hTLR-9 cells assay (SEAP reporter, ODN2006 stimulation); type: cell-based; conditions: not given
T1 sequence (Q9NR96 26-1032): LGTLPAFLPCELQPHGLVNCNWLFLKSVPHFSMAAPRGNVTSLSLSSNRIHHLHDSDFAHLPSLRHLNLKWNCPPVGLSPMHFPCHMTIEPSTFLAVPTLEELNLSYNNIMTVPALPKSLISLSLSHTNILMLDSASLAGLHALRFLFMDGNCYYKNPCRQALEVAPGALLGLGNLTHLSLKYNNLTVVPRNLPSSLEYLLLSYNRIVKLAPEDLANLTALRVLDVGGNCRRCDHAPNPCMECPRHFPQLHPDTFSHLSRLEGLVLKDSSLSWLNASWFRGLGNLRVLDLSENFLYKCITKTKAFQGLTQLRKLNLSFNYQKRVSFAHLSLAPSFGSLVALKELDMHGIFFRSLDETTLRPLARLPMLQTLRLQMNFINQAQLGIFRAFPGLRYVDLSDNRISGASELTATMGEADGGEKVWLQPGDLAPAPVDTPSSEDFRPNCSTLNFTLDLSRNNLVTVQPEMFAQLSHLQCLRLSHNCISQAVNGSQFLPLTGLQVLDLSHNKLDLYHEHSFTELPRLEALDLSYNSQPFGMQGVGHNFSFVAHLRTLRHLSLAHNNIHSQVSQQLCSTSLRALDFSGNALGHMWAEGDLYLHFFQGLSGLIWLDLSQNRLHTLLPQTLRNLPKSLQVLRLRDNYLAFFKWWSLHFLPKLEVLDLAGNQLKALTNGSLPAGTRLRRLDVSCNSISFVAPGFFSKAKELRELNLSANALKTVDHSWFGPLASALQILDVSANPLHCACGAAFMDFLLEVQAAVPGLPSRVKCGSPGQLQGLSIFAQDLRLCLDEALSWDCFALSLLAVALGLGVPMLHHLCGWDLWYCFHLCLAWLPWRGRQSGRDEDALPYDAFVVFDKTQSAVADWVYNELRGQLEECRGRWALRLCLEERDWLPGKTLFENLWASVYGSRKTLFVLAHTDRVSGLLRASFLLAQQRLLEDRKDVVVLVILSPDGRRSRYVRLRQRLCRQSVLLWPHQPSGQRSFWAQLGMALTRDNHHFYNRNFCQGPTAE
Method: The following tests were carried out in order to determine the activity of the compounds of formula (I) in HEK293-Blue-hTLR-7/8/9 cells assay.
HEK293-Blue-hTLR-9 Cells Assay:
A stable HEK293-Blue-hTLR-9 cell line was purchased from InvivoGen (Cat. #: hkb-htlr9, San Diego, California, USA). These cells were originally designed for studying the stimulation of human TLR9 by monitoring the activation of NF-κB. A SEAP (secreted embryonic alkaline phosphatase) reporter gene was placed under the control of the IFN-β minimal promoter fused to five NF-κB and AP-1-binding sites. The SEAP was induced by activating NF-κB and AP-1 via stimulating HEK-Blue hTLR9 cells with TLR9 ligands. Therefore the reporter expression was declined by TLR9 antagonist under the stimulation of a ligand, such as ODN2006 (Cat. #: tlrl-2006-1, Invivogen, San Diego, California, USA), for incubation of 20 hrs. The cell culture supernatant SEAP reporter activity was determined using QUANTI-Blue™ kit (Cat. #: rep-qb1, Invivogen, San Diego, California, USA) at a wavelength of 640 nm, a detection medium that turns purple or blue in the presence of alkaline phosphatase.
HEK293-Blue-hTLR9 cells were incubated at a density of 250,000˜450,000 cells/mL in a volume of 170 μL in a 96-well plate in Dulbecco's Modified Eagle's medium (DMEM) containing 4.5 g/L glucose, 50 U/mL penicillin, […], 2 mM L-glutamine, 10% (v/v) heat-inactivated fetal bovine serum with addition of 20 μL test compound in a serial dilution in the presence of final DMSO at 1% and 10 μL of 20 uM ODN2006 in above DMEM, perform incubation under 37° C. in a CO2 incubator for 20 hrs. Then 20 μL of the supernatant from each well was incubated with 180 μL Quanti-blue substrate solution at 37° C. for 2 hrs and the absorbance was read at 620˜655 nm using a spectrophotometer. The signalling pathway that TLR9 activation leads to downstream NF-κB activation has been widely accepted, and therefore similar reporter assay was modified for evaluating TLR9 antagonist.

SMILES | pIC50
C[C@@H]1CN(c2ccc(C#N)n3nccc23)C[C@H](C(=O)NC2CC3CCCC(C2)N3C)O1 (stereo partly drawn) [Example 35, (2R,6R)-4-(7-cyanopyrazolo[1,5-a]pyridin-4-yl)-6-methyl-N-(9-methyl-9-azabicyclo[3.3.1]nonan-3-yl)morpholine-2-carboxamide] | 4.96

same assay, conditions: HEK293-Blue-hTLR-9 cells, ODN2006 ligand, 20 hrs incubation; read-out: TLR9 IC50

pIC50 | SMILES
4.80 | C[C@@H]1CN(c2ccc(C#N)n3nccc23)C[C@H](C(=O)NC2(C)CCNCC2)O1 [Example 19, (2R,6R)-4-(7-cyanopyrazolo[1,5-a]pyridin-4-yl)-6-methyl-N-(4-methyl-4-piperidyl)morpholine-2-carboxamide]
4.92 | C[C@@H]1CN(c2ccc(C#N)n3nccc23)C[C@H](C(=O)NC2CC3CC2CN3)O1 (stereo partly drawn) [Example 36, (2R,6R)-N-(2-azabicyclo[2.2.1]heptan-5-yl)-4-(7-cyanopyrazolo[1,5-a]pyridin-4-yl)-6-methyl-morpholine-2-carboxamide]
4.44 | C[C@@H]1CN(c2ccc(C#N)n3nccc23)C[C@H](C(=O)NC2CC3(CNC3)C2)O1 [Example 3, (2R,6R)-N-(2-azaspiro[3.3]heptan-6-yl)-4-(7-cyanopyrazolo[1,5-a]pyridin-4-yl)-6-methyl-morpholine-2-carboxamide]
5.17 | C[C@@H]1CN(c2ccc(C#N)n3nccc23)C[C@H](C(=O)NC2C3CCCC2CNC3)O1 (stereo partly drawn) [Example 37, (2R,6R)-N-(3-azabicyclo[3.3.1]nonan-9-yl)-4-(7-cyanopyrazolo[1,5-a]pyridin-4-yl)-6-methyl-morpholine-2-carboxamide]
4.89 | C[C@@H]1CN(c2ccc(C#N)n3nccc23)C[C@H](C(=O)NC2C3CCC2CNC3)O1 (stereo partly drawn) [Example 26, (2R,6R)-N-(3-azabicyclo[3.2.1]octan-8-yl)-4-(7-cyanopyrazolo[1,5-a]pyridin-4-yl)-6-methyl-morpholine-2-carboxamide]
5.17 | C[C@@H]1CN(c2ccc(C#N)n3nccc23)C[C@H](C(=O)NC2C3CNCC2COC3)O1 (stereo partly drawn) [Example 27, (2R,6R)-4-(7-cyanopyrazolo[1,5-a]pyridin-4-yl)-6-methyl-N-(3-oxa-7-azabicyclo[3.3.1]nonan-9-yl)morpholine-2-carboxamide]
< 4.00 | C[C@@H]1CN(c2ccc(C#N)n3nccc23)C[C@H](C(=O)NC(C)(C)CO)O1 [Example 16, (2R,6R)-4-(7-cyanopyrazolo[1,5-a]pyridin-4-yl)-N-(2-hydroxy-1,1-dimethyl-ethyl)-6-methyl-morpholine-2-carboxamide]
5.00 | C[C@H]1C[C@@H](NC(=O)[C@H](C)N)CN(c2ccc(C#N)n3nccc23)C1 [Example 44, (2S)-2-amino-N-[(3R,5S)-1-(7-cyanopyrazolo[1,5-a]pyridin-4-yl)-5-methyl-3-piperidyl]propanamide]
< 4.00 | COCCNC(=O)[C@H]1CN(c2ccc(C#N)n3nccc23)C[C@@H](C)O1 [Example 9, (2R,6R)-4-(7-cyanopyrazolo[1,5-a]pyridin-4-yl)-N-(2-methoxyethyl)-6-methyl-morpholine-2-carboxamide]
4.15 | C[C@@H]1CN(c2ccc(C#N)n3nccc23)C[C@H](C(=O)N[C@H]2CC[C@@H](O)CC2)O1 [Example 20, Cis-(2R,6R)-4-(7-cyanopyrazolo[1,5-a]pyridin-4-yl)-N-(4-hydroxycyclohexyl)-6-methyl-morpholine-2-carboxamide]
4.96 | C[C@@H]1CN(c2ccc(C#N)n3nccc23)C[C@H](C(=O)NC(C)(C)CN)O1 [Example 41, (2R,6R)-N-(2-amino-1,1-dimethyl-ethyl)-4-(7-cyanopyrazolo[1,5-a]pyridin-4-yl)-6-methyl-morpholine-2-carboxamide]
5.77 | C[C@@H]1CN(c2ccc(C#N)n3nccc23)C[C@H](C(=O)N2CCC3(CCNCC3)CC2)O1 [Example 28, 4-[(2R,6R)-2-(3,9-diazaspiro[5.5]undecane-3-carbonyl)-6-methyl-morpholin-4-yl]pyrazolo[1,5a]pyridine-7-carbonitrile]
4.74 | C[C@@H]1CN(c2ccc(C#N)n3nccc23)C[C@H](C(=O)NC2CC3COCC(C2)N3)O1 (stereo partly drawn) [Example 22, Endo-(2R,6R)-4-(7-cyanopyrazolo[1,5-a]pyridin-4-yl)-6-methyl-N-[3-oxa-9-azabicyclo[3.3.1]nonan-7-yl]morpholine-2-carboxamide]
4.82 | C[C@@H]1CN(c2ccc(C#N)n3nccc23)C[C@H](C(=O)NC2CCN(C)CC2)O1 [Example 1, (2R,6R)-4-(7-cyanopyrazolo[1,5-a]pyridin-4-yl)-6-methyl-N-(1-methyl-4-piperidyl)morpholine-2-carboxamide]
4.15 | C[C@@H]1CN(c2ccc(C#N)n3nccc23)C[C@H](C(=O)N2CC(N)C2)O1 [Example 8, 4-[(2R,6R)-2-(3-aminoazetidine-1-carbonyl)-6-methyl-morpholin-4-yl]pyrazolo[1,5a]pyridine-7-carbonitrile]
< 4.00 | C[C@@H]1CN(c2ccc(C#N)n3nccc23)C[C@H](C(=O)N[C@H]2CNC[C@H]2F)O1 [Example 2, (2R,6R)-4-(7-cyanopyrazolo[1,5-a]pyridin-4-yl)-N-[(3S,4R)-4-fluoropyrrolidin-3-yl]-6-methyl-morpholine-2-carboxamide]
4.85 | C[C@@H]1CN(c2ccc(C#N)n3ncc(F)c23)C[C@H](C(=O)NC2CCN(C)CC2)O1 [Example 47, (2R,6R)-4-(7-cyano-3-fluoro-pyrazolo[1,5-a]pyridin-4-yl)-6-methyl-N-(1-methyl-4-piperidyl)morpholine-2-carboxamide]
< 4.00 | C[C@@H]1CN(c2ccc(C#N)n3nccc23)C[C@H](C(=O)NC2CC3CCC(C2)N3)O1 (stereo partly drawn) [Example 23, Exo-(2R,6R)-N-[8-azabicyclo[3.2.1]octan-3-yl]-4-(7-cyanopyrazolo[1,5-a]pyridin-4-yl)-6-methyl-morpholine-2-carboxamide]
4.72 | C[C@@H]1CN(c2ccc(C#N)n3nccc23)C[C@H](C(=O)NCC(C)(C)CN)O1 [Example 39, (2R,6R)-N-(3-amino-2,2-dimethyl-propyl)-4-(7-cyanopyrazolo[1,5-a]pyridin-4-yl)-6-methyl-morpholine-2-carboxamide]
4.48 | CCC(C)(C)NC(=O)[C@H]1CN(c2ccc(C#N)n3nccc23)C[C@@H](C)O1 [Example 17, (2R,6R)-4-(7-cyanopyrazolo[1,5-a]pyridin-4-yl)-N-(1,1-dimethylpropyl)-6-methyl-morpholine-2-carboxamide]
5.00 | C[C@H]1C[C@@H](N)CN(c2ccc(C#N)n3nccc23)C1 [Example 43, 4-[(3R,5S)-3-amino-5-methyl-1-piperidyl]pyrazolo[1,5-a]pyridine-7-carbonitrile]
< 4.00 | C[C@@H]1CN(c2ccc(C#N)n3nccc23)C[C@H](C(=O)NC2CCOCC2)O1 [Example 4, (2R,6R)-4-(7-cyanopyrazolo[1,5-a]pyridin-4-yl)-6-methyl-N-tetrahydropyran-4-yl-morpholine-2-carboxamide]
4.11 | C[C@@H]1CN(c2ccc(C#N)n3nccc23)C[C@H](C(=O)NC2CNC[C@H]2F)O1 (stereo partly drawn) [Example 5, Cis-(2R,6R)-4-(7-cyanopyrazolo[1,5-a]pyridin-4-yl)-6-methyl-N-(4-fluoropyrrolidin-3-yl) morpholine-2-carboxamide]
